From patent US8093226B2, “Cytostatic 7-deazapurine nucleosides” (Institute of Organic Chemistry and Biochemistry of the …, priority 2008, dated 2012)

What was measured:
Format in all cases: cell-based
A549 = assay: Test A: Cytostatic Cell Culture Assay (GI50), A549; details: Homo sapiens, 120 h; A549 cells, 5 days, SRB; read-out: G150 Lung A549
Excerpt: (§1) Test A: Cytostatic Cell Culture Assay (GI50)
(§2) This assay is based on quantification of cell counts by a calorimetric detection of the cell associated proteins. The assay relies on the ability of sulforhodamine B (SRB) to bind to protein components of cells that have been fixed to tissue-culture plates by trichloroacetic acid (TCA). SRB is a bright-pink aminoxanthene dye with two sulfonic groups that bind to basic amino-acid residues under mild acidic conditions, and dissociate under basic conditions. As the binding of SRB is stoichiometric, the amount of dye extracted from stained cells is directly proportional to the cell mass.
(§3) Cell lines: All cell lines are obtained from ATCC (Manassas, Va.). Cultivation media containing Glutanax, and trypsin are purchased from Invitrogen (Carlsbad, Calif.). Doxorubicin, Clofarabine, TCA and SRB are from Sigma-Aldrich (St. Louis, Mo.). Gemcitabine is obtained from Moravek Biochemicals (Brea, Calif.)
(§4) • 1. Trypsinize the sub-confluent cells, count them, and adjust the cell concentrations according to the cell counts listed in Table 1. • 2. Distribute the cells into the 96-well plates in 150 μL of media. Incubate the plates overnight in humidified CO2 incubator at 37° C. • 3. Fix one plate of each cell line with TCA. Discard the cultivation media from the plates by flicking them gently and add 100 μL cold 10% (vol/vol) TCA to each well. Incubate the plates at 4 degree refrigerator for 1 hour. Discard TCA from the plates by flicking them gently. Rinse plates four times in a washing basin containing tap water. Store the plates at room temperature. These plates represent cell counts on day zero. • 4. Prepare a set of medium solutions containing various concentrations of tested compounds by making 5-fold serial dilutions in 96-well plate. Add 50 μL of the diluted compounds per well. Include controls with untreated cells and cells treated with doxorubicin, clofarabine and gemcitabine. • 5. Incubate the plates for 5 days at 37° C. • 6. Fix the plates with TCA. Discard the cultivation media from the plates by flicking them gently and add 100 μL cold 10% (vol/vol) TCA to each well. Incubate the plates at 4 degree refrigerator for 1 hour. Discard TCA from the plates by flicking them gently. Rinse plates four times in a washing basin containing tap water. • 7. Remove excess water by tapping the plates face down, gently on a paper towel. Allow the plates to air-dry at room temperature. • 8. Add 100 μL of 0.057% SRB solution in 1% (vol/vol) acetic acid to each well of the plates fixed with TCA on day zero and five. Leave at room temperature for 30 minutes. • 9. Flick the plates gently to discard SRB. Rinse the plates four times with 1% (vol/vol) Acetic Acid. • 10. Store the plates at 370 incubator to facilitate faster drying. • 11. Once the plates are completely dry, add 200 μL of 10 mM Tris base solution (pH 10.5) to each well. Leave at room temperature for 30 minutes for SRB to solubilize. • 12. Measure the OD at 500 nm in a microplate reader. • 13. Calculate the percentage of cell-growth inhibition using the next formula: % of control cell growth=100×(ODsample−mean ODday0)/(ODneg control−mean ODday0)
(§5) For GI50 determination, plot a dose-response curves between the compound concentration and percent of growth inhibition. GI50 values can be derived by fitting dose-response curves using sigmoidal dose response equation.

Hs578 = assay: Test A: Cytostatic Cell Culture Assay (GI50), Hs578; details: 120 h; Hs578 cells, 5 days, SRB; read-out: G150 Breast Hs578
Excerpt: as §1, §2, §3, §4, §5

Du145 = assay: Test A: Cytostatic Cell Culture Assay (GI50), Du145; details: Homo sapiens, DU-145, 120 h; Du145 cells, 5 days, SRB; read-out: G150 Prostate Du145
Excerpt: as §1, §2, §3, §4, §5

HCT116 = assay: Test A: Cytostatic Cell Culture Assay (GI50), HCT116; details: Homo sapiens, HCT-116, 120 h; HCT116 cells, 5 days, SRB; read-out: G150 Colon HCT116
Excerpt: as §1, §2, §3, §4, §5

PC3 = assay: Test A: Cytostatic Cell Culture Assay (GI50), PC3; details: Homo sapiens, PC-3, 120 h; PC3 cells, 5 days, SRB; read-out: G150 Prostate PC3
Excerpt: as §1, §2, §3, §4, §5

NCIH23 = assay: Test A: Cytostatic Cell Culture Assay (GI50), NCIH23; details: Homo sapiens, NCI-H23, 120 h; NCIH23 cells, 5 days, SRB; read-out: G150 Lung NCIH23
Excerpt: as §1, §2, §3, §4, §5

HCT15 = assay: Test A: Cytostatic Cell Culture Assay (GI50), HCT15; details: Homo sapiens, HCT-15, 120 h; HCT15 cells, 5 days, SRB; read-out: G150 Colon HCT15
Excerpt: as §1, §2, §3, §4, §5

Row | SMILES | IC50 (A549) [nM] | IC50 (Du145) [nM] | IC50 (HCT116) [nM] | IC50 (PC3) [nM] | IC50 (HCT15) [nM] | IC50 (Hs578) [nM] | IC50 (NCIH23) [nM]
1 | CCc1ncnc2c1ccn2[C@@H]1O[C@H](CO)[C@@H](O)[C@H]1O [Example 1, 4-Ethyl-7-(β-D-ribofuranosyl)-7H-pyrrolo[2,3-d]pyrimidine] | 4400 | 1240 | 2560 | – | – | 4680 | –
2 | OC[C@H]1O[C@@H](n2ccc3c(Cc4ccccc4)ncnc32)[C@H](O)[C@@H]1O [Example 2, 4-Benzyl-7-(β-D-ribofuranosyl)-7H-pyrrolo[2,3-d]pyrimidine] | > 20000 | 15700 | > 20000 | – | – | > 20000 | –
3 | OC[C@H]1O[C@@H](n2ccc3c(-c4nccs4)ncnc32)[C@H](O)[C@@H]1O [Example 8, 7-(β-D-Ribofuranosyl)-4-(thiazol-2-yl)-7H-pyrrolo[2,3-d]pyrimidine] | 409 | 19 | 484 | 104 | 208 | 294 | 4390
4 | OC[C@H]1O[C@@H](n2ccc3c(-c4c[nH]cn4)ncnc32)[C@H](O)[C@@H]1O [Example 9, 4-(1H-Imidazol-4-yl)-7-(β-D-ribofuranosyl)-7H-pyrrolo[2,3-d]pyrimidine] | 2590 | 94 | 3690 | 194 | 224 | 1940 | 2490
5 | OCc1ncnc2c1ccn2[C@@H]1O[C@H](CO)[C@@H](O)[C@H]1O [Example 11, 4-Hydroxymethyl-7-(β-D-ribofuranosyl)-7H-pyrrolo[2,3-d]pyrimidine] | 252 | 30 | 447 | 52 | 30 | 53 | 28
6 | OC[C@H]1O[C@@H](n2ccc3c(-c4ccc[se]4)ncnc32)[C@H](O)[C@@H]1O [Example 15, 7-(O-D-Ribofuranosyl)-4-(selenophen-2-yl)-7H-pyrrolo[2,3-d]pyrimidine] | 230 | 28 | 342 | 12 | 5 | 290 | 2520
7 | OC[C@H]1O[C@@H](n2cc(F)c3c(-c4ccccc4)ncnc32)[C@H](O)[C@@H]1O [Example 19, 5-Fluoro-4-phenyl-7-(β-D-ribofuranosyl)-7H-pyrrolo[2,3-d]pyrimidine] | 12900 | 581 | > 20000 | – | – | 19200 | –
8 | OC[C@H]1O[C@@H](n2cc(F)c3c(-c4ccc[nH]4)ncnc32)[C@H](O)[C@@H]1O [Example 22] | 195 | 9 | 453 | 176 | 111 | 315 | 2610
9 | OC[C@H]1O[C@@H](n2cc(F)c3c(-c4ccoc4)ncnc32)[C@H](O)[C@@H]1O [Example 23, 5-Fluoro-4-(furan-3-yl)-7-(β-D-ribofuranosyl)-7H-pyrrolo[2,3-d]pyrimidine] | 60 | 5 | 18 | 87 | 39 | 177 | 4640
10 | OC[C@H]1O[C@@H](n2cc(F)c3c(-c4ccsc4)ncnc32)[C@H](O)[C@@H]1O [Example 24, 5-Fluoro-7-(β-D-ribofuranosyl)-4-(thiophen-3-yl)-7H-pyrrolo[2,3-d]pyrimidine] | 379 | 66 | 145 | 105 | 179 | 813 | 2950
11 | OC[C@H]1O[C@@H](n2cc(F)c3c(-c4nccs4)ncnc32)[C@H](O)[C@@H]1O [Example 25, 5-Fluoro-7-(β-D-ribofuranosyl)-4-(thiazol-2-yl)-7H-pyrrolo[2,3-d]pyrimidine] | 902 | 24 | 1260 | 175 | 361 | 566 | 4980

Continued, in another order:

Row | IC50 (A549) [nM] | IC50 (Du145) [nM] | IC50 (HCT116) [nM] | IC50 (PC3) [nM] | IC50 (HCT15) [nM] | SMILES | IC50 (Hs578) [nM] | IC50 (NCIH23) [nM]
12 | > 20000 | 1310 | > 20000 | – | – | COc1ccc(-c2ncnc3c2ccn3[C@@H]2O[C@H](CO)[C@@H](O)[C@H]2O)cc1 [Example 3, 4-(4-Methoxyphenyl)-7-(β-D-ribofuranosyl)-7H-pyrrolo[2,3-d]pyrimidine] | > 20000 | –
13 | > 20000 | 729 | > 20000 | – | – | OC[C@H]1O[C@@H](n2ccc3c(-c4ccc(F)cc4)ncnc32)[C@H](O)[C@@H]1O [Example 4, 4-(4-Fluorophenyl)-7-(β-D-ribofuranosyl)-7H-pyrrolo[2,3-d]pyrimidine] | 2520 | –
14 | > 20000 | 630 | > 20000 | 1280 | 2440 | OC[C@H]1O[C@@H](n2ccc3c(-c4ccc[nH]4)ncnc32)[C@H](O)[C@@H]1O [Example 7, 4-(1H-Pyrrol-2-yl)-7-(β-D-ribofuranosyl)-7H-pyrrolo[2,3-d]pyrimidine] | 1280 | 2500
15 | > 20000 | > 20000 | > 20000 | > 20000 | > 20000 | OC[C@H]1O[C@@H](n2ccc3c(-c4cccnc4)ncnc32)[C@H](O)[C@@H]1O [Example 10] | > 20000 | > 20000
16 | 73 | 36 | 92 | 150 | 86 | OC[C@H]1O[C@@H](n2ccc3c(-c4ccoc4)ncnc32)[C@H](O)[C@@H]1O [Example 12, 4-(Furan-3-yl)-7-(β-D-ribofuranosyl)-7H-pyrrolo[2,3-d]pyrimidine] | 264 | 697
17 | 627 | 32 | 216 | 92 | 98 | OC[C@H]1O[C@@H](n2ccc3c(-c4ccsc4)ncnc32)[C@H](O)[C@@H]1O [Example 13, 7-(β-D-Ribofuranosyl)-4-(thiophen-3-yl)-7H-pyrrolo[2,3-d]pyrimidine] | 711 | 4240
18 | 365 | 30 | 500 | 384 | 163 | OC[C@H]1O[C@@H](n2ccc3c(-c4cc[nH]c4)ncnc32)[C@H](O)[C@@H]1O [Example 14, 4-(1H-Pyrrol-3-yl)-7-(β-t-ribofuranosyl)-7H-pyrrolo[2,3-d]pyrimidine] | 442 | 2320
19 | 3250 | 409 | 7310 | 560 | 1060 | OC[C@H]1O[C@@H](n2ccc3c(-c4ccn[nH]4)ncnc32)[C@H](O)[C@@H]1O [Example 16] | 3940 | 3230
20 | 6230 | 75 | 5680 | 427 | 674 | OC[C@H]1O[C@@H](n2ccc3c(-c4cn[nH]c4)ncnc32)[C@H](O)[C@@H]1O [Example 17, 4-(1H-Pyrazol-4-yl)-7-(β-D-ribofuranosyl)-7H-pyrrolo[2,3-d]pyrimidine] | 3060 | 5230
21 | 4860 | 387 | > 20000 | – | – | OC[C@H]1O[C@@H](n2ccc3c(-c4ccccn4)ncnc32)[C@H](O)[C@@H]1O [Example 18, 4-(Pyridin-2-yl)-7-(β-D-ribofuranosyl)-7H-pyrrolo[2,3-d]pyrimidine] | > 20000 | –
